According to ChEMBL document CHEMBL1201862, “PubChem BioAssay data set” (2004):
Active and inactive are the calls of the source.

Assays:
[1] = target: Luciferin 4-monooxygenase (Photinus pyralis, UniProt P08659); experiment: Counter Screen for Luciferase-based Assay Positives. [Related pubchem assays: 620, 618, 411 ]
[2] = Luminescence Cell-Based Dose Response HTS to Identify Inhibitors of 5'UTR Stem-Loop Driven Prion Protein mRNA Translation in H4 Neuroglioblastoma Cells. [Related pubchem assays: 1827 (Project Summary), 1813 (Primary HTS)]; format: functional
[3] = inhibitors of SNCA 5'UTR-driven reporter translation, confirmation, H4 neuroglioma cells, luminescence (AID 1988); format: functional, cell-based
HT-1080 = experiment: cytotoxicity in HT1080 fibrosarcoma cells, cell-based, fluorescence readout (AID 620); format: functional; conditions: Homo sapiens
[4] = target: T1, Heat shock 70 kDa protein 1A (Homo sapiens, UniProt P0DMV8); experiment: Hsp70 inhibitors, biochemical, TR-FRET (AID 786)
[5] = target: T1, Heat shock 70 kDa protein 1A; experiment: Hsp70 inhibitors, probe displacement, primary screen, biochemical, fluorescence polarization (AID 583)
[6] = target: Eukaryotic translation initiation factor 4H (Homo sapiens, UniProt Q15056); experiment: human eIF4H binding inhibitors, primary screen, translation initiation inhibitor project, biochemical, uHTS, fluorescence polarization (AID 2012)
[7] = target: Polyadenylate-binding protein 1 (Homo sapiens, UniProt P11940); experiment: PABP poly(A) RNA binding inhibitors, primary screen, biochemical, fluorescence polarization, uHTS (AID 2014)
[8] = insulin promoter down-regulators in MIN6 cells, imaging, high-content screening, mouse beta cells (AID 1628); format: functional
Protein Rev = Protein Rev (Human immunodeficiency virus type 1 group M subtype B (isolate WMJ22)(HIV-1), UniProt P05866); experiment: HIV-1 Rev-RRE RNA binding disruptors, dose response, biochemical, protein-RNA interaction (AID 842); set-up: species or system Human immunodeficiency virus 1
[9] = cytotoxicity in MIN6 insulinoma cells, dose response, cytotoxicity control, cell-based, mouse insulinoma (AID 2122); format: functional;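 note: confirmatory high-throughput counterscreen run to flag cytotoxic compounds; mouse MIN-6 beta cells carrying an insulin promoter eGFP reporter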
[10] = target: FAD-linked sulfhydryl oxidase ALR (Homo sapiens, UniProt P55789); experiment: inhibitors of human ALR sulfhydryl oxidase, dose response, biochemical, H2O2 detection, luminescence, cherry-pick (AID 493248)
INS1 = experiment: beta cell apoptosis inhibitors, cytokine rescue, dose response, luminescence, retest (AID 449756); format: functional, cell-based; conditions: Rattus norvegicus;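 note: cell death triggered by IL-1 beta plus TNF-alpha plus IFN-gamma mixture; protective hits raise ATP signal compared with cytokine alone wells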
[11] = HEp-2 cell cytotoxicity, dose response, cytotoxicity control for RSV inhibitor project, HTS (AID 2410); format: functional; conditions: human respiratory syncytial virus
Vero = experiment: cells; format: functional, cell-based; conditions: Chlorocebus sabaeus
[12] = target: T2, Neuropeptides B/W receptor type 1 (Homo sapiens, UniProt P48145); experiment: Fluorescence-based dose response cell-based high throughput screening assay to identify antagonists of the G-protein coupled receptor 7 (GPR7). [Related pubchem assays: 1952 (Screening assay (GPR7 antagonists).), 1880 (Summary AID.)]; format: functional
T2 sequence (P48145 whole entry): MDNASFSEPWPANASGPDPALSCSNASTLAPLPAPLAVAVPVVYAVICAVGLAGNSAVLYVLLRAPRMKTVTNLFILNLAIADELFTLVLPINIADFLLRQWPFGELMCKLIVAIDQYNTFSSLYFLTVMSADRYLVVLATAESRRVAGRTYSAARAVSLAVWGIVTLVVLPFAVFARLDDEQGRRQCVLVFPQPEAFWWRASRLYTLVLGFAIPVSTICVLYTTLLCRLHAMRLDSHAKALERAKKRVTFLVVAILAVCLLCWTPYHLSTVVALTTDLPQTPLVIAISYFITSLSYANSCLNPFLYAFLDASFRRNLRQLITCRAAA

[13] = target: Melanin-concentrating hormone receptor 1 (Homo sapiens, UniProt Q99705); experiment: Fluorescence-based counterscreen for antagonists of the G-protein coupled receptor 7 (GPR7): cell-based high throughput dose response assay to identify antagonists of the melanin-concentrating hormone receptor 1 (MCHR1).; format: functional
[14] = target: Acyl-homoserine lactone acylase PvdQ (Pseudomonas aeruginosa (strain LESB58), UniProt Q9I194); experiment: P. aeruginosa PvdQ acylase inhibitors, dose response, biochemical, fluorescence, plate reader and imaging, cherry-picks (AID 493231)
Leucine aminopeptidase = target: T3, Leucine aminopeptidase (Plasmodium falciparum 3D7, UniProt Q8IL11); experiment: P. falciparum M17LAP inhibitors, primary screen, biochemical, fluorogenic H-Leu-NHMec substrate, 1536-well (AID 1619); format: functional
T3 sequence (Q8IL11 whole entry): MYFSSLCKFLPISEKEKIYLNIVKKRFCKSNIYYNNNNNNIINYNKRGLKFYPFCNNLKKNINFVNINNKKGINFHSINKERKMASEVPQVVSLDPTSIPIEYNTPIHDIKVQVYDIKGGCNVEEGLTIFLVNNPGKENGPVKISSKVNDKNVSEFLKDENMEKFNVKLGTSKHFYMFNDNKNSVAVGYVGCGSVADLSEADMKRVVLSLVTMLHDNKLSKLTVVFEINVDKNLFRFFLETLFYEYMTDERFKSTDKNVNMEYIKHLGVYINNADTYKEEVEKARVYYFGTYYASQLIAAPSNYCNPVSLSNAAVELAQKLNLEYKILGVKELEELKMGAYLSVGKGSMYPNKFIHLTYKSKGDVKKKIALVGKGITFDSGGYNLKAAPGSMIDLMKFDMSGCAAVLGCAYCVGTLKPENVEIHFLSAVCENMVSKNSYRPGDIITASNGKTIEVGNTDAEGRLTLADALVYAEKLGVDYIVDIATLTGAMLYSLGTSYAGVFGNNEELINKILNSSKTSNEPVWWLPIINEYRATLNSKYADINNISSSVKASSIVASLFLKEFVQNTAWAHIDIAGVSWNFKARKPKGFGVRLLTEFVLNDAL

[15] = target: T4, Mannose-6-phosphate isomerase (Homo sapiens, UniProt P34949); experiment: inhibitors of human PMI, primary screen, biochemical, fluorescence intensity, coupled assay (AID 1209)
T4 sequence (P34949 whole entry): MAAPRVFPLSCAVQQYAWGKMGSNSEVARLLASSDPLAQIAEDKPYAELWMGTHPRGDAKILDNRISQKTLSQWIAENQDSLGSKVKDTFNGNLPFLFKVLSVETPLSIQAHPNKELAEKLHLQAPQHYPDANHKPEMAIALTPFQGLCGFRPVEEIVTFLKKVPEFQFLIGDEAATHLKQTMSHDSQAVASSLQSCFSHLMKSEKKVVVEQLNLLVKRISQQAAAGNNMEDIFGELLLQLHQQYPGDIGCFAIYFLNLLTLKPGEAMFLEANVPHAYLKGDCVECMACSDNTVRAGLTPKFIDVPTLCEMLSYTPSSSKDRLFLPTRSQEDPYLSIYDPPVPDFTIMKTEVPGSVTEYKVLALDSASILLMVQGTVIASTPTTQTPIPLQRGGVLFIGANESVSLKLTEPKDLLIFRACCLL

T1 sequence (P0DMV8 whole entry): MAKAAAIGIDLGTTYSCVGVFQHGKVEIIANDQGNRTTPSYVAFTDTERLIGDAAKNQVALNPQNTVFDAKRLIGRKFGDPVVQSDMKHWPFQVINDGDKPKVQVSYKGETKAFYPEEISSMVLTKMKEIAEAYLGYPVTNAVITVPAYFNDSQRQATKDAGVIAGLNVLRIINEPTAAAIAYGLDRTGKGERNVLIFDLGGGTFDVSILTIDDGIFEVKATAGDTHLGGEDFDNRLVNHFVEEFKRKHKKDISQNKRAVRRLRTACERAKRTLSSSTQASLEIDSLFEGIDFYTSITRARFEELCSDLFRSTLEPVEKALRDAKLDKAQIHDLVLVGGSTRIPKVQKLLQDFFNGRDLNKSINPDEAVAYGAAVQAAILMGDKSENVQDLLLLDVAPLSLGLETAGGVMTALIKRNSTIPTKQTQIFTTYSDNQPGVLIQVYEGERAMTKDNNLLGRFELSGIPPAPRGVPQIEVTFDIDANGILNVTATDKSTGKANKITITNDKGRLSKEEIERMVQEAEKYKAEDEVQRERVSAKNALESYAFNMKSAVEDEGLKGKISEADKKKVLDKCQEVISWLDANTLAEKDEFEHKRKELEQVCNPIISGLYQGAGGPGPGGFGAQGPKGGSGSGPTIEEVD
Polyadenylate-binding protein 1, sequence (P11940 whole entry): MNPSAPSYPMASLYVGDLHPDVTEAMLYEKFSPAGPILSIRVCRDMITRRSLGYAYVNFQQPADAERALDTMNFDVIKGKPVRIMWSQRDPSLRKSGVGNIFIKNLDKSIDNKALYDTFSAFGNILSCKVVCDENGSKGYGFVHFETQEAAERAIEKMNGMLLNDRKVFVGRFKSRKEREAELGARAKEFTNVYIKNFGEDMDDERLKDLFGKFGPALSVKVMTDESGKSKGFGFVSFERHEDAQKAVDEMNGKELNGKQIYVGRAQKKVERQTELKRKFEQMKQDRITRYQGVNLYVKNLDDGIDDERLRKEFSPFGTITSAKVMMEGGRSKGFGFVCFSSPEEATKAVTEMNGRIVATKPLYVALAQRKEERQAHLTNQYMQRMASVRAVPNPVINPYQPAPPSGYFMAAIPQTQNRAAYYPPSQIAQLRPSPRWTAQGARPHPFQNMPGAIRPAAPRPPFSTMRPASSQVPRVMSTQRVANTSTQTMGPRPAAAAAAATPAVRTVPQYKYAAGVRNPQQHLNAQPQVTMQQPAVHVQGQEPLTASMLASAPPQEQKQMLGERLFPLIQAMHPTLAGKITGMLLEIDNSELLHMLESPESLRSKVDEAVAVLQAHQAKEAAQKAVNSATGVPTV
Protein Rev, sequence (P05866 whole entry): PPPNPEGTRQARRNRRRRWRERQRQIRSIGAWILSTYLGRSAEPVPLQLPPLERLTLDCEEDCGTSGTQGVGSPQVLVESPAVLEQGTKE
FAD-linked sulfhydryl oxidase ALR, sequence (P55789 whole entry): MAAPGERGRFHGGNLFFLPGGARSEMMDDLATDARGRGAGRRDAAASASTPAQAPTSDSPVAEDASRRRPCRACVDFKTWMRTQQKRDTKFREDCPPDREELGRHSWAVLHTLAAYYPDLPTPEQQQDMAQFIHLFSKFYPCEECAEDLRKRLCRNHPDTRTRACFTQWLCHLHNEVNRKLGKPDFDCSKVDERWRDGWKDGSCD
Melanin-concentrating hormone receptor 1, sequence (Q99705 whole entry): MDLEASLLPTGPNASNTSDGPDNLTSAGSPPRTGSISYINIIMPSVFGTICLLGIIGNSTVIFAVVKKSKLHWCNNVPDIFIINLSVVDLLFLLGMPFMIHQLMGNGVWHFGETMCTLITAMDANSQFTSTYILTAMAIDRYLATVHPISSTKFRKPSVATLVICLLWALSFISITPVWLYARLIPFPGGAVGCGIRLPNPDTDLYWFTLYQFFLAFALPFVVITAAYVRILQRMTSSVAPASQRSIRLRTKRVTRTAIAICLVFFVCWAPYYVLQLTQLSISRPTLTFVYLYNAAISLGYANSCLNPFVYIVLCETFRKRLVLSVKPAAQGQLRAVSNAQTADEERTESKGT
Acyl-homoserine lactone acylase PvdQ, sequence (Q9I194 24-193 limits assumed): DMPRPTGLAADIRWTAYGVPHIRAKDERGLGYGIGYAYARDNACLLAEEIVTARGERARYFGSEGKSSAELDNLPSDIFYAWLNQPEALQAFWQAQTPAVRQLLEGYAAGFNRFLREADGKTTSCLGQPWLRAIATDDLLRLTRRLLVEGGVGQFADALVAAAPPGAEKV
Acyl-homoserine lactone acylase PvdQ, sequence (Q9I194 217-762 limits assumed): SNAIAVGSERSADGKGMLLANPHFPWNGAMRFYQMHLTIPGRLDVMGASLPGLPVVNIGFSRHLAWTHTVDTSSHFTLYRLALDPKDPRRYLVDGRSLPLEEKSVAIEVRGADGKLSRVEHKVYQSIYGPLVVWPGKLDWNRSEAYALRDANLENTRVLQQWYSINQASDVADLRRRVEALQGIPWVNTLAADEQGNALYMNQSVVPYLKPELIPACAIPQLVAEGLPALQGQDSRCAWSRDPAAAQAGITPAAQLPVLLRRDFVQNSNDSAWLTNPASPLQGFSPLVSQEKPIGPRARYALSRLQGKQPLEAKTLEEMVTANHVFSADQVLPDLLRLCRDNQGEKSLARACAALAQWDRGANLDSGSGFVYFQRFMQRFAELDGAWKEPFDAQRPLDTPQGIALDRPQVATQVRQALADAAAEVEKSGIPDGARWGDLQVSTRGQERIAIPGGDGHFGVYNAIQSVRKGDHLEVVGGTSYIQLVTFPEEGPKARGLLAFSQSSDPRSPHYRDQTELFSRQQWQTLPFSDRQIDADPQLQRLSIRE
Luciferin 4-monooxygenase, sequence (P08659 whole entry): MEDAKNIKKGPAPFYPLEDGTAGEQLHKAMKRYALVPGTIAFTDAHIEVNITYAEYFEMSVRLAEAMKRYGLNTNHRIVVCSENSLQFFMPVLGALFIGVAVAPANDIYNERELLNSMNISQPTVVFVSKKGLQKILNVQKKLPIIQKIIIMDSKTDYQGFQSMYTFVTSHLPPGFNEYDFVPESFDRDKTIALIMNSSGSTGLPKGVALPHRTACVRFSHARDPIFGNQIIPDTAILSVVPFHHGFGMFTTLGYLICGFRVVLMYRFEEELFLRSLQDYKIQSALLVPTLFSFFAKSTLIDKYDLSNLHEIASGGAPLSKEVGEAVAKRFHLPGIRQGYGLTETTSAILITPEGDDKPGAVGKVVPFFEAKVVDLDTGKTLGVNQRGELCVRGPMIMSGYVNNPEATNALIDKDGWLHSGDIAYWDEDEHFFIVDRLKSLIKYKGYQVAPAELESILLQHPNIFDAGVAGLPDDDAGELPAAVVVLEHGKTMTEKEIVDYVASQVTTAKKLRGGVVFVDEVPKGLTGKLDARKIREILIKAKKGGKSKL

Q: For `Cc1ccc(/C=N\NC(=O)C2CN(S(=O)(=O)c3ccccc3)CCN2S(=O)(=O)c2ccccc2)cc1` (centres undefined), which IC50 (cells) is on record?
A: The IC50 was 13.6 µM (active).

Q: With `Cc1csc(NC(=O)C2COc3ccccc3O2)n1` (centres undefined) as the compound, how does the EC50 [1] read?
A: The EC50 was 0.56 µM (active).

Q: What about the EC50 [2] of the same compound?
A: The EC50 was 10.7 µM (inconclusive).

Q: What about the EC50 [3] of the same compound?
A: The EC50 was 7.32 µM (active).

Q: What about the EC50 (HT-1080) of the same compound?
A: Its EC50 is > 50 µM (not active).

Q: Which IC50 [4] does the source give for `CCOC(=O)CNC(=O)CNC(=O)Cn1ccc2ccccc2c1=O` here?
A: Its IC50 is > 100 µM (not active).

Q: What about the IC50 [5] of the same compound?
A: The IC50 was > 100 µM (not active).

Q: With `O=C(CN1CCN(S(=O)(=O)/C=C/c2ccccc2)CC1)NC(=O)NCc1ccco1` as the compound, how does the IC50 [6] read?
A: Its IC50 is 13.1 µM (active).

Q: And the IC50 [7]?
A: The IC50 was > 100 µM (inactive).

Q: Which results are given for `CCC(=O)N1c2ccc(S(=O)(=O)NCc3ccco3)cc2CC1C` (centres undefined)?
A: IC50 [6]: 10.2 µM (active); IC50 [7]: 24.1 µM (active)

Q: Which IC50 [8] does the source give for `C[n+]1c2n(c3ccccc31)N=C(c1ccc(Cl)cc1)CS2` here?
A: The IC50 was 2.51 µM (active).

Q: What about the IC50 (Protein Rev) of the same compound?
A: Its IC50 is > 79.4 µM (not active).

Q: What about the IC50 [9] of the same compound?
A: Its IC50 is 1.49 µM (active).

Q: What about the AC50 [10] of the same compound?
A: The AC50 was 0.425 µM (active).

Q: And the AC50 (INS1)?
A: The AC50 was 4.54 µM (active).

Q: What does the source list for `Nc1ccc(C(=O)OCc2nc3cc4ccccc4cc3[nH]2)cc1`?
A: CC50 [11]: 36.6 µM (active); IC50 (Vero): 3.67 µM (active); IC50 (cells): 23.6 µM (active)

Q: For `CCOC(=O)c1[nH]c2ccc(OC)cc2c1NS(=O)(=O)c1ccc(OC)cc1OC`, which IC50 [12] is on record?
A: Its IC50 is > 43.8 µM (not active).

Q: What about the IC50 [13] of the same compound?
A: The IC50 was > 43.8 µM (not active).

Q: For `CSc1nnc(-c2ccc([N+](=O)[O-])cc2)o1`, which AC50 [14] is on record?
A: The AC50 was 6.96 µM (active).

Q: What does the source list for `CC(=O)NNC(=S)NC(=O)c1cccc([N+](=O)[O-])c1`?
A: IC50 (Leucine aminopeptidase): 45.8 µM (active); IC50 [15]: > 50 µM (not active)
